Measured values published in patent publication US7951815B2, “Substituted 1,4,8-triazaspiro [4,5]decan-2-one compounds” (Gruenenthal GmbH, priority 2004, dated 2011).
Read-outs that look alike come from different tables or passages of the source.

What was measured:
5-HT transporter = target: T1, 5-HT transporter (Rattus norvegicus, UniProt P31652); test: Inhibition of 5-HT uptake in rat brain synaptosomes; assay type: biochemical; conditions: rat, 1 μM; for inhibition at 1 µM: read-out: Uptake 5-HT, % inhibition
T1 construct: synaptosomes of rat brain areas are freshly isolated; from tissue; host or cells: rat brain synaptosomes (P2 fraction) from marrow and pons
T1 sequence (P31652 whole entry): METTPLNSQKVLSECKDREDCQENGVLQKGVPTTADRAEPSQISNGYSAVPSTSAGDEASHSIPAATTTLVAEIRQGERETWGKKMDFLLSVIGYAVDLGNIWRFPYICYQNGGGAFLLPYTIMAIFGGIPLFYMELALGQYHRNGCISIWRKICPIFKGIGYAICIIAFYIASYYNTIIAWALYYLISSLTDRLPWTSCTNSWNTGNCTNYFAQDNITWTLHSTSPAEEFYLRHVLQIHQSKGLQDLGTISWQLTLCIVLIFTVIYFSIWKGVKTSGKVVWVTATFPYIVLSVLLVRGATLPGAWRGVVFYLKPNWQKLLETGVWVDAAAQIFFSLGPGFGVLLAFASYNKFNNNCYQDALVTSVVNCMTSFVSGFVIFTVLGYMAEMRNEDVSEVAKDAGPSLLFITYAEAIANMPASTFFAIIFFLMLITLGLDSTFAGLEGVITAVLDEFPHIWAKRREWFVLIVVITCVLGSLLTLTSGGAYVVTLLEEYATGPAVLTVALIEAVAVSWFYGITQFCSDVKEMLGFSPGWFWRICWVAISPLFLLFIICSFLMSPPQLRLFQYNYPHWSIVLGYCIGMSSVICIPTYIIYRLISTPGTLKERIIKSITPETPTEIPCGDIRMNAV

[1] = tested on: batrachotoxin (BTX) binding site of the sodium channel; test: Affinity to the batrachotoxin (BTX) binding site of the sodium channel; conditions: rat cerebrocortex synaptosomes, test concentration not given

| SMILES | inhibition at 1 µM (5-HT transporter; Table III) | BTX inhibition ([1]; Table III) | inhibition at 1 µM (5-HT transporter; Table II) | BTX inhibition ([1]; Table II) | Uptake 5-HT, rat, 1 μM, % inhibition (5-HT transporter; Table II) |
| --- | --- | --- | --- | --- | --- |
| CCCCN1C(=O)C(Cc2ccccc2)NC12CCN(C(=O)c1cc(C(C)(C)C)nn1C)CC2 (stereo not shown) [Example 249, 3-Benzyl-1-butyl-8-(5-tert-butyl-2-methyl-2H-pyrazole-3-carbonyl)-1,4,8-triazaspiro[4,5]decan-2-one] | 55% | 34 | – | – | – |
| Cl.O=C(c1ccco1)N1CCC2(CC1)N[C@@H](Cc1ccccc1)C(=O)N2Cc1ccccc1 [Example 60, 1,3-(S)-dibenzyl-8-(furan-2-carbonyl)-1,4,8-triazaspiro[4,5]decan-2-one hydrochloride] | – | – | 80% | 39 | – |
| C=CCN1C(=O)C(CCSC)NC12CCN(C(=O)c1cc(C(C)(C)C)nn1C)CC2 (stereo not shown) [Example 330, 1-Allyl-8-(5-tert-butyl-2-methyl-2H-pyrazole-3-carbonyl)-3-(2-methylsulfanylethyl)-1,4,8-triazaspiro[4,5]decan-2-one] | 45% | 31 | – | – | – |
| O=C(c1ccc(-c2ccccc2)cc1)N1CCC2(CC1)NCC(=O)N2Cc1ccccc1F [Example 262, 8-(Biphenyl-4-carbonyl)-1-(2-fluorobenzyl)-1,4,8-triazaspiro[4,5]decan-2-one] | 60% | 70 | – | – | – |
| CCOC(=O)CN1C(=O)C(Cc2ccccc2)NC12CCN(C(=O)COCc1ccccc1)CC2 (stereo not shown) [Example 329, Ethyl [3-benzyl-8-(2-benzyloxyacetyl)-2-oxo-1,4,8-triazaspiro[4,5]dec-1-yl]acetate] | 55% | 43 | – | – | – |
| CCCc1c(C(=O)N2CCC3(CC2)NC(Cc2ccccc2)C(=O)N3CC(=O)OCC)cnn1-c1ccccc1 (stereo not shown) [Example 306, Ethyl [3-benzyl-2-oxo-8-(1-phenyl-5-propyl-1H-pyrazole-4-carbonyl)-1,4,8-triazaspiro[4,5]dec-1-yl]acetate] | 85% | 68 | – | – | – |
| C=CCN1C(=O)C(CCSC)NC12CCN(C(=O)c1cnn(-c3ccccc3)c1CCC)CC2 (stereo not shown) [Example 323, 1-Allyl-3-(2-methylsulfanylethyl)-8-(1-phenyl-5-propyl-1H-pyrazole-4-carbonyl)-1,4,8-triazaspiro[4,5]decan-2-one] | 33% | 43 | – | – | – |
| O=C(CCCOc1ccccc1)N1CCC2(CC1)NC(Cc1ccccc1)C(=O)N2Cc1ccccc1 (stereo not shown) [Example 209, 1,3-Dibenzyl-8-(4-phenoxybutyryl)-1,4,8-triazaspiro[4,5]decan-2-one] | 69% | 67 | – | – | – |
| Cl.O=C(c1ccc(F)cc1)N1CCC2(CC1)N[C@@H](Cc1ccccc1)C(=O)N2Cc1ccccc1 [Example 62, 1,3-(S)-dibenzyl-8-(4-fluorobenzoyl)-1,4,8-triazaspiro[4,5]decan-2-one hydrochloride] | – | – | 87% | 48 | – |
| CC(C)CC1NC2(CCN(C(=O)c3ccc(-c4ccccc4)cc3)CC2)N(Cc2ccc(F)cc2)C1=O (stereo not shown) [Example 101, 8-(Biphenyl-4-carbonyl)-1-(4-fluorobenzyl)-3-isobutyl-1,4,8-triazaspiro[4,5]decan-2-one] | 33% | 78 | – | – | – |
| CCOC(=O)CN1C(=O)C(Cc2ccccc2)NC12CCN(C(=O)C1CC1)CC2 (stereo not shown) [Example 293, Ethyl (3-benzyl-8-cyclopropanecarbonyl-2-oxo-1,4,8-triazaspiro[4,5]dec-1-yl)acetate] | 55% | 31 | – | – | – |
| O=C(c1sccc1Cl)N1CCC2(CC1)NC(Cc1ccccc1)C(=O)N2Cc1ccccc1 (stereo not shown) [Example 172, 1,3-Dibenzyl-8-(3-chlorothiophene-2-carbonyl)-1,4,8-triazaspiro[4,5]decan-2-one] | 76% | 49 | – | – | – |
| CSCCC1NC2(CCN(C(=O)c3cccc(OC(F)(F)F)c3)CC2)N(Cc2cccc(C#N)c2)C1=O (stereo not shown) [Example 200, 3-[3-(2-Methylsulfanylethyl)-2-oxo-8-(3-trifluoromethoxybenzoyl)-1,4,8-triazaspiro[4,5]dec-1-ylmethyl]benzonitrile] | 45% | 44 | – | – | – |
| CCCCN1C(=O)C(Cc2ccccc2)NC12CCN(C(=O)c1cc(F)ccc1C(F)(F)F)CC2 (stereo not shown) [Example 175, 3-Benzyl-1-butyl-8-(5-fluoro-2-trifluoromethylbenzoyl)-1,4,8-triazaspiro[4,5]decan-2-one] | 69% | 38 | – | – | – |
| CSCCC1NC2(CCN(C(=O)CCC3CCCC3)CC2)N(Cc2ccccc2)C1=O (stereo not shown) [Example 221, 1-Benzyl-8-(3-cyclopentylpropionyl)-3-(2-methylsulfanylethyl)-1,4,8-triazaspiro[4,5]decan-2-one] | 79% | 36 | – | – | – |
| CCCCN1C(=O)C(Cc2ccccc2)NC12CCN(C(=O)c1ccc(I)cc1)CC2 (stereo not shown) [Example 207, 3-Benzyl-1-butyl-8-(4-Iodobenzoyl)-1,4,8-triazaspiro[4,5]decan-2-one] | 76% | 57 | – | – | – |

| SMILES | inhibition at 1 µM (5-HT transporter; Table III) | BTX inhibition ([1]; Table III) | inhibition at 1 µM (5-HT transporter; Table II) | BTX inhibition ([1]; Table II) | Uptake 5-HT, rat, 1 μM, % inhibition (5-HT transporter; Table II) |
| --- | --- | --- | --- | --- | --- |
| CCSc1ncccc1C(=O)N1CCC2(CC1)NC(Cc1ccccc1)C(=O)N2Cc1ccccc1 (stereo not shown) [Example 145, 1,3-Dibenzyl-8-(2-ethylsulfanylpyridin-3-carbonyl)-1,4,8-triazaspiro[4,5]decan-2-one] | 89% | 64 | – | – | – |
| CC(C)CC1NC2(CCN(C(=O)c3cc(C(C)(C)C)nn3C)CC2)N(Cc2cccc(C#N)c2)C1=O (stereo not shown) [Example 218, 3-[8-(5-tert-Butyl-2-methyl-2H-pyrazole-3-carbonyl)-3-isobutyl-2-oxo-1,4,8-triazaspiro[4,5]dec-1-ylmethyl]benzonitrile] | 57% | 39 | – | – | – |
| CC(C)(C)CC(=O)N1CCC2(CC1)NC(Cc1ccccc1)C(=O)N2Cc1ccccc1 (stereo not shown) [Example 230, 1,3-Dibenzyl-8-(3,3-dimethylbutyryl)-1,4,8-triazaspiro[4,5]decan-2-one] | 72% | 30 | – | – | – |
| CC(C)CC1NC2(CCN(C(=O)c3ccc4nonc4c3)CC2)N(Cc2c(Cl)cccc2Cl)C1=O (stereo not shown) [Example 275, 8-(Benzo[1,2,5]oxadiazole-5-carbonyl)-1-(2,6-dichlorobenzyl)-3-isobutyl-1,4,8-triazaspiro[4,5]decan-2-one] | 33% | 61 | – | – | – |
| Cc1nc(C(F)(F)F)ccc1C(=O)N1CCC2(CC1)NC(C(C)C)C(=O)N2CCOc1ccccc1 (stereo not shown) [Example 167, 3-Isopropyl-8-(2-methyl-6-trifluoromethylpyridin-3-carbonyl)-1-(2-phenoxyethyl)-1,4,8-triazaspiro[4,5]decan-2-one] | 52% | 38 | – | – | – |
| COc1ccc(OC)c(CC(=O)N2CCC3(CC2)NC(CCSC)C(=O)N3Cc2ccccc2F)c1 (stereo not shown) [Example 195, 8-[2-(2,5-Dimethoxyphenyl)acetyl]-1-(2-fluorobenzyl)-3-(2-methylsulfanylethyl)-1,4,8-triazaspiro[4,5]decan-2-one] | 50% | 34 | – | – | – |
| CCOC(=O)CN1C(=O)C(CC(C)C)NC12CCN(C(=O)CC(C)C)CC2 (stereo not shown) [Example 288, Ethyl [3-isobutyl-8-(3-methylbutyryl)-2-oxo-1,4,8-triazaspiro[4,5]dec-1-yl]acetate] | 45% | 32 | – | – | – |
| O=C(C=Cc1ccccc1)N1CCC2(CC1)NC(Cc1ccccc1)C(=O)N2Cc1ccccc1 (stereo not shown) [Example 223, 1,3-Dibenzyl-8-(3-phenylacryloyl)-1,4,8-triazaspiro[4,5]decan-2-one] | 49% | 62 | – | – | – |
| CCC(CC)C(=O)N1CCC2(CC1)N[C@@H](Cc1ccccc1)C(=O)N2Cc1ccc(OC)cc1.Cl (racemic) [Example 30, 3-(S,R)-benzyl-8-(2-ethylbutyryl)-1-(4-methoxybenzyl)-1,4,8-triazaspiro[4,5]decan-2-one hydrochloride] | – | – | – | 35 | 42% |
| COc1ccc(CC(=O)N2CCC3(CC2)NC(Cc2ccccc2)C(=O)N3C)cc1 (stereo not shown) [Example 176, 3-Benzyl-8-[2-(4-methoxyphenyl)acetyl]-1-methyl-1,4,8-triazaspiro[4,5]decan-2-one] | 37% | 30 | – | – | – |
| O=C(c1ccc(Br)cc1)N1CCC2(CC1)NC(Cc1ccccc1)C(=O)N2Cc1ccccc1 (stereo not shown) [Example 105, 1,3-Dibenzyl-8-(4-bromobenzoyl)-1,4,8-triazaspiro[4,5]decan-2-one] | 68% | 66 | – | – | – |
| CCC(C(=O)N1CCC2(CC1)NC(Cc1ccccc1)C(=O)N2Cc1ccccc1)c1ccccc1 (stereo not shown) [Example 237, 1,3-Dibenzyl-8-(2-phenylbutyryl)-1,4,8-triazaspiro[4,5]decan-2-one] | 63% | 42 | – | – | – |
| C=CCN1C(=O)C(C(C)C)NC12CCN(C(=O)Cc1cccc(OC)c1)CC2 (stereo not shown) [Example 296, 1-Allyl-3-isopropyl-8-[2-(3-methoxyphenyl)acetyl]-1,4,8-triazaspiro[4,5]decan-2-one] | 30% | 36 | – | – | – |
| CC(C)C1NC2(CCN(C(=O)C=Cc3ccccc3Cl)CC2)N(CCOc2ccccc2)C1=O (stereo not shown) [Example 225, 8-[3-(2-Chlorophenyl)acryloyl]-3-isopropyl-1-(2-phenoxyethyl)-1,4,8-triazaspiro[4,5]decan-2-one] | 32% | 55 | – | – | – |
| Cc1nn(-c2ccccc2)nc1C(=O)N1CCC2(CC1)NC(Cc1ccccc1)C(=O)N2C (stereo not shown) [Example 168, 3-Benzyl-1-methyl-8-(5-methyl-2-phenyl-2H-[1,2,3]triazole-4-carbonyl)-1,4,8-triazaspiro[4,5]decan-2-one] | 46% | 44 | – | – | – |
| CCCCN1C(=O)C(Cc2ccccc2)NC12CCN(C(=O)CCC1CCCC1)CC2 (stereo not shown) [Example 188, 3-Benzyl-1-butyl-8-(3-cyclopentylpropionyl)-1,4,8-triazaspiro[4,5]decan-2-one] | 70% | 69 | – | – | – |
